Legend:
Recombinant Tdp1 [1] = target: T1, Recombinant Tdp1 (Homo sapiens (Human), UniProt Q9NUW8); assay: AlphaScreen Tdp1 assay (qHTS, FITC/biotin phosphotyrosine DNA substrate); assay type: biochemical
Description: Tween-20, KCl, fluorescein isothiocyanate (FITC), and PBS were procured from Sigma-Aldrich. DMSO certified ACS grade was obtained from Fisher. The AlphaScreen FITC/streptavidin detection kit was from PerkinElmer Life and Analytical Sciences (Waltham, Mass.). Assay buffer consisted of PBS, pH 7.4, 80 mM KCl and 0.05% Tween-20. Recombinant Tdp1 was expressed and purified as described elsewhere (Antony et al., Nucleic Acids Research 35:4474-4484 (2007). The Sigma-Aldrich LOPAC^1280 library of 1280 known bioactives was received as DMSO solutions at initial concentration of 10 mM and plated as described elsewhere (Inglese et al., Proc. Natl. Acad. Sci. USA 103:11473-11478 (2006); Yasgar et al., J. Assoc. Lab. Automat. 13:78-89 (2008)).
The biotinylated phosphotyrosine deoxyoligonucleotide (5′ biotin-[…]-pY) was synthesized, purified, and QC-tested by Midland Certified Reagent Company, Midland, Tex. Standard overnight 4° C. FITC coupling was performed in-house. The FITC-labeled substrate was purified on Biospin-6 desalting columns (Bio-Rad, Hercules, Calif.) and its concentration was determined by UV-vis spectrophotometry.
Assay reaction mixtures and substrate/beads titrations were initially performed at 20 μl final volume in 384-well plates. For the subsequent 1,536-well based experiments, Flying Reagent Dispenser (FRD, Aurora Discovery, presently Beckman-Coulter) was used to dispense reagents into the assay plates, while a pintool was used to deliver DMSO solutions of the test inhibitors. Plates were read on Envision plate reader (PerkinElmer) equipped with AlphaScreen optical detection module. For testing the effect of enzyme reaction conditions on the IC50 values for select inhibitors, the respective compounds were prepared as 24-point twofold intra-plate dilution series and assayed as described.
Three μl of reagents (buffer in columns 3 and 4 as negative control and 1.33 nM Tdp1 in columns 1, 2, 5-48) were dispensed into 1,536-well black solid bottom plate. Compounds (final concentrations in the range of 0.7 nM to 57 μM) were transferred via Kalypsys pintool equipped with 1,536-pin array. The plate was incubated for 15 min at room temperature, and then 1 μl of substrate (15 nM final concentration) was added to start the reaction. After 5 min incubation at room temperature, 1 μl of bead mix (15 μg/mL final concentration) was added and the plate was further incubated for 10 min at room temperature prior to signal measurement. Substrate and beads were prepared and kept in amber bottles to prevent photo-degradation. Library plates were screened starting from the lowest and proceeding to the highest concentration. Vehicle-only plates, with DMSO being pin-transferred to the entire column 5-48 compound area, were included at the beginning and the end of the screen in order to record any systematic shifts in assay signal. Screening data were corrected, normalized, and curve-fitted by using in-house developed algorithms.
To configure an assay for Tdp1, we utilized the ability of the AlphaScreen system to report on the integrity of the phosphotyrosine-based substrate, viewed here as a multi-site analyte. The AlphaScreen signal is a direct consequence of the close proximity of donor and acceptor beads, which is achieved by the formation of a ternary donor-analyte-acceptor recognition complex. To realize the AlphaScreen assay using the consensus DNA-pY substrate for Tdp1, 5′[…]pY, recognition elements for both bead types had to be introduced. To this end, we coupled a fluorescein isothiocyanate (FITC) to the amino group of tyrosine in a phosphotyrosine-containing single stranded DNA substrate bearing a biotin at its 5′ end. […] Conversely, if the Tdp1 catalysis was inhibited, an elevated signal would be observed for that sample.

Recombinant Tdp1 [2] = target: T1, Recombinant Tdp1; assay: Secondary radiolabel gel-based Tdp1 assay (N14Y substrate); assay type: biochemical
Description: One nanomolar of 5′-^32P-labeled substrate (N14Y; 5′-[…]-Tyrosine-3′) was incubated with 0.1 nM recombinant Tdp1 in the absence or presence of inhibitor for 20 min at 25° C. in a reaction buffer containing 50 mM Tris-HCl (pH 7.5), 80 mM KCl, 2 mM EDTA, and 40 μg/ml BSA. Reactions were terminated by the addition of one volume of gel loading buffer (96% (v/v) formamide, 10 mM EDTA, 1% (w/v) xylene cyanol and 1% (w/v) bromphenol blue). The samples were subsequently heated to 95° C. for 5 min and subjected to 20% denaturing PAGE. When the Tdp1 mutant H493R (100 nM) was employed, the reactions were stopped with one volume of SDS loading dye and analyzed by 4-20% SDS-PAGE. All gels were dried and exposed on a PhosphorImager screen. Imaging and quantification were done using a Typhoon 8600 and ImageQuant software (GE Healthcare, Piscataway, N.J.).
Activity of certain compounds was also tested in secondary radiolabel gel-based assays (Inamdar et al., J. Biol. Chem. 277:27162-27168 (2002); Davies et al., J. Mol. Biol. 324:917-932 (2002)).

[3] = 1,536-well AlphaScreen qHTS, N/D = not detectable, read-out: Activity (qHTS) IC50
[4] = 1 nM N14Y, 0.1 nM Tdp1, 20 min at 25° C., N/D = not detectable, read-out: Activity (Gel)

T1 sequence (Q9NUW8 whole entry): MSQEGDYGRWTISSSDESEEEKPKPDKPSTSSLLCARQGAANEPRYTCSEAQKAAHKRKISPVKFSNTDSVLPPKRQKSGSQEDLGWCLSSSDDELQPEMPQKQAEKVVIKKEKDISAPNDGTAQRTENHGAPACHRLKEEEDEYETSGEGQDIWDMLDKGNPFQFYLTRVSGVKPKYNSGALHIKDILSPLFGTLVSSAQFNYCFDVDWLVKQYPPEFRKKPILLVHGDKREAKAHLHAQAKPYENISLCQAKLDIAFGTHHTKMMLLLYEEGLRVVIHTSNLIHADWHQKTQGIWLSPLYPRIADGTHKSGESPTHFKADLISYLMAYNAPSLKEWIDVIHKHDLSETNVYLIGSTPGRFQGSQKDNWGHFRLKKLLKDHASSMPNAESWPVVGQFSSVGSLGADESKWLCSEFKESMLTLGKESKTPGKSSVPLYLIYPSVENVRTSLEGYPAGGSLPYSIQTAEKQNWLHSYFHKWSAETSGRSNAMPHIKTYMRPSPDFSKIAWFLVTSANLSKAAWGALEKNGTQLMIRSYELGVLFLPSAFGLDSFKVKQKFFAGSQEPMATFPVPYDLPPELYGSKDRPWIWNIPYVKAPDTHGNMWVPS

| Structure (SMILES) | IC50 (Recombinant Tdp1 [1]; [3]) | IC50 (Recombinant Tdp1 [2]; [4]) | further results |
| --- | --- | --- | --- |
| CN(C)C1C(=O)C(C(N)=O)C(=O)C2(O)C(=O)C3C(=O)c4c(O)cccc4C(C)(O)C3C(O)C12 (centres unmarked) |  |  | IC50 (Recombinant Tdp1 [1]): 200 nM; IC50 (Recombinant Tdp1 [2]): 5 µM |
| CN(C)C1C(O)=C(C(N)=O)C(=O)[C@@]2(O)C(O)=C3C(=O)c4c(O)cccc4[C@](C)(O)C3C(O)C12 (some centres unmarked) | 630 nM | 8 µM |  |
| CN(C)[C@@H]1C(O)=C(C(N)=O)C(=O)[C@]2(O)C(O)=C3C(=O)c4c(O)ccc(Cl)c4[C@](C)(O)[C@H]3C[C@@H]12 | 2820 nM | 13.2 µM |  |
| CN(C)C1C(O)=C(C(N)=O)C(=O)[C@]2(O)C(O)=C3C(=O)c4c(O)cccc4[C@](C)(O)C3C(O)C12 (some centres unmarked) | 3160 nM | 10 µM |  |
| CN(C)C1C(O)=C(C(N)=O)C(=O)[C@@]2(O)C(O)=C3C(=O)c4c(O)cccc4[C@@](C)(O)C3[C@H](O)C12 (some centres unmarked) | 4470 nM | 3 µM |  |
| CN(C)[C@H]1C(O)=C(C(N)=O)C(=O)[C@]2(O)C(O)=C3C(=O)c4c(O)cccc4[C@@](C)(O)[C@H]3C[C@@H]12 | 14100 nM | 10 µM |  |
| CN(C)C1C(O)=C(C(N)=O)C(=O)[C@@]2(O)C(O)=C3C(=O)c4c(O)cccc4[C@@](C)(O)C3C[C@@H]12 (some centres unmarked) | 10000 nM |  |  |
| CN(C)C1C(O)=C(C(N)=O)C(=O)[C@@]2(O)C(O)=C3C(=O)c4c(O)cccc4[C@@](C)(O)C3CC12.Cl (some centres unmarked) |  |  | Activity (qHTS) IC50 (Recombinant Tdp1 [1]; 1,536-well AlphaScreen qHTS, N/D = not detectable): IC50: N/D |
| CN(C)[C@@H]1C(O)=C(C(N)=O)C(=O)[C@@]2(O)C(O)=C3C(=O)c4c(O)cccc4[C@@](C)(O)[C@H]3[C@H](O)[C@@H]12 | 500 nM |  |  |
| CN(C)[C@@H]1C(O)=C(C(N)=O)C(=O)[C@]2(O)C(O)=C3C(=O)c4c(O)cccc4[C@@](C)(O)[C@H]3[C@H](O)[C@@H]12 | 1590 nM |  |  |
| CN(C)[C@@H]1C(=O)C(C(N)=O)=C(O)[C@@]2(O)C(O)=C3C(=O)c4c(O)cccc4[C@@](C)(O)[C@H]3[C@H](O)[C@@H]12 |  |  | IC50 (Recombinant Tdp1 [1]): 400 nM |
| [O]=[V]([O-])([O-])[O-] [vanadate, reference compound] |  |  | Tdp1 inhibition potency range (Recombinant Tdp1 [1]; AlphaScreen assay set-up in 384-well plates): sub-millimolar |

Continued, in another order:

| IC50 (Recombinant Tdp1 [1]; [3]) | IC50 (Recombinant Tdp1 [2]; [4]) | Structure (SMILES) | further results |
| --- | --- | --- | --- |
| 200 nM |  | CN(C)[C@H]1C(O)=C(C(=O)NCN2CCCC2)C(=O)[C@]2(O)C(O)=C3C(=O)c4c(O)cccc4[C@](C)(O)[C@H]3C[C@H]12 | IC50 (Recombinant Tdp1 [2]; 1 nM N14Y, 0.1 nM Tdp1, value printed with question mark, read-out: Activity (Gel)): < 0.1 µM |
| 1260 nM | 30.2 µM | CN(C)[C@H]1C(O)=C(C(=O)NCN2CCCC2)C(=O)[C@]2(O)C(O)=C3C(=O)c4c(O)cccc4[C@@](C)(O)[C@H]3C[C@@H]12 |  |
| 3160 nM | 20 µM | CN(C)C1C(O)=C(C(N)=O)C(=O)[C@@]2(O)C(O)=C3C(=O)c4c(O)ccc(Cl)c4[C@](C)(O)C3CC12 (some centres unmarked) |  |
| 12600 nM |  | CN(C)[C@H]1C(O)=C(C(=O)NCN[C@@H](CCCCN)C(=O)O)C(=O)[C@]2(O)C(O)=C3C(=O)c4c(O)cccc4[C@@](C)(O)[C@H]3C[C@@H]12 |  |
| 710 nM |  | CN(C)[C@@H]1C(O)=C(C(=O)NCN2CCCC2)C(=O)[C@@]2(O)C(O)=C3C(=O)c4c(O)cccc4[C@@](C)(O)C3CC12 (some centres unmarked) |  |

Source: patent publication US8865686B2, “Tetracycline compounds as tyrosyl-DNA phosphodiesterase I inhibitors” (The United States of America, as Represented by the …, priority 2006, dated 2014)
